Test [1] relates to Septoria tritici (ATCC 26517). Put plainly: Minimum Inhibitory Concentration (MIC) vs. Septoria tritici. It counts as cell-based. As to conditions: 50% reduction in growth of S. tritici, 22° C., seven days; for MIC: Zymoseptoria tritici, ATCC26517, 168 h, read-out: Septoria Rating (MIC). The essentials: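 Growth inhibition of S. tritici by CLSI-based filamentous-fungus microdilution, 2-fold series 16 to 0.016 μg/mL in RPMI-1640/MOPS with 2% DMSO. Inoculum approximately 5×10^4 cfu/mL; plates incubated 22° C, seven days, dark, unshaken.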

The test system of test [2] is Puccinia recondita tritici = Puccinia triticina. Put plainly: Fungicidal activity vs. leaf rust on wheat plants. It counts as in vivo. The note with it: 50 ppm spray on wheat (Yuma), inoculated the following day, evaluated 7-9 days later; for pest or weed control at 50 ppm: read-out: Puccinia Rating (% Disease Control @ 50 ppm). The source says:
D. Evaluation of Fungicidal Activity Vs. Leaf Rust (Causal Agent Puccinia recondita Tritici=Puccinia triticina; Bayer code PUCCRT). […] Each pot contained 3-8 seedlings. These plants were sprayed until wet with the formulated test compounds. The compounds were formulated at 50 ppm in 10 vol. % acetone plus 90 vol. % Triton X water (deionized water 99.99 wt %+0.01 wt % Triton X100), giving a “formulated test compound.” Formulated test compounds were applied to plants using a turn table sprayer fitted with two opposing air atomization nozzles which delivered approximately 1500 L/ha of spray volume. On the following day, the leaves were inoculated with an aqueous spore suspension of Puccinia recondita tritici and the plants were kept in high humidity overnight to permit spores to germinate and infect the leaf. The plants were then transferred to a greenhouse until disease developed on untreated control plants. Disease severity was evaluated 7-9 days later, depending on the speed of disease development. In each case of Table 3, the Puccinia rating scale is as follows: […]

We go through 24 molecules from patent publication US8748461B2, “Metalloenzyme inhibitor compounds” (Viamet Pharmaceuticals, Inc., priority 2011, dated 2014).

The structures appear in SMILES notation. ≈ marks a conversion by molar mass, not a printed value.

As for `N#Cc1ccc(C(F)(F)COc2ccc(C(F)(F)C(O)(Cn3cnnn3)c3ccc(F)cc3F)nc2)cc1` (stereo not drawn) [Compound 121, 4-(2-((6-(2-(2,4-difluorophenyl)-1,1-difluoro-2-hydroxy-3-(1H-tetrazol-1-yl)propyl)pyridin-3-yl)oxy)-1,1-difluoroethyl)benzonitrile], the MIC in test [1] is ≤ 0.5 mg/L. Moreover, the pest or weed control at 50 ppm in test [2] is 80 to 100%.

In the case of `N#Cc1ccc(COc2ccc(C(F)(F)C(O)(Cn3cnnn3)c3ccc(F)cc3F)nc2)nc1` (stereo not drawn) [Compound 50, 6-(((6-(2-(2,4-Difluorophenyl)-1,1-difluoro-2-hydroxy-3-(1H-tetrazol-1-yl)propyl)pyridin-3-yl)oxy)methyl)nicotinonitrile], the minimal inhibitory concentration (MIC) in test [1] was ≤ 0.5 mg/L. Also, the pest or weed control at 50 ppm in test [2] is 80 to 100%.

In the case of `OC(Cn1cnnn1)(c1ccc(F)cc1F)C(F)(F)c1ccc(Oc2ccc(/C=N/OCc3ccccc3)cn2)cn1` (stereo not drawn) [Compound 103, (E)-6-((6-(2-(2,4-difluorophenyl)-1,1-difluoro-2-hydroxy-3-(1H-tetrazol-1-yl)propyl)pyridin-3-yl)oxy)nicotinaldehyde O-benzyl oxime], the MIC in test [1] was 0.5 to 1.5 mg/L (≈ 0.863 to 2.59 µM). The pest or weed control at 50 ppm in test [2] was in the range of 60 to 79%.

`N#Cc1cccc(Oc2ccc(C(F)(F)C(O)(Cn3cnnn3)c3ccc(F)cc3F)nc2)c1` (stereo not drawn) [Compound 78, 3-((6-(2-(2,4-Difluorophenyl)-1,1-difluoro-2-hydroxy-3-(1H-tetrazol-1-yl)propyl)pyridin-3-yl)oxy)benzonitrile]: the MIC in test [1] is ≤ 0.5 mg/L. For the same molecule, the pest or weed control at 50 ppm in test [2] lay in the range of 80 to 100%.

As to `OC(Cn1cnnn1)(c1ccc(F)cc1F)C(F)(F)c1ccc(OCc2cccs2)cn1` (stereo not drawn) [Compound 49, 2-(2,4-Difluorophenyl)-1,1-difluoro-3-(1H-tetrazol-1-yl)-1-(5-(thiophen-2-ylmethoxy)pyridin-2-yl)propan-2-ol], in test [1], the MIC was ≤ 0.5 mg/L. For the same molecule, the pest or weed control at 50 ppm in test [2] was 80 to 100%.

On to `OC(Cn1cnnn1)(c1ccc(F)cc1F)C(F)(F)c1ccc(Oc2ncc(Cl)cn2)cn1` (stereo not drawn) [Compound 98, 1-(5-((5-chloropyrimidin-2-yl)oxy)pyridin-2-yl)-2-(2,4-difluorophenyl)-1,1-difluoro-3-(1H-tetrazol-1-yl)propan-2-ol], for which the MIC in test [1] is ≤ 0.5 mg/L. Further, the pest or weed control at 50 ppm in test [2] was in the range of 80 to 100%.

As to `N#Cc1ccc(COc2ccc(C(F)(F)C(O)(Cn3cnnn3)c3ccc(F)cc3F)nc2)c(F)c1` (stereo not drawn) [Compound 57, 4-(((6-(2-(2,4-Difluorophenyl)-1,1-difluoro-2-hydroxy-3-(1H-tetrazol-1-yl)propyl)pyridin-3-yl)oxy)methyl)-3-fluorobenzonitrile], the MIC in test [1] was ≤ 0.5 mg/L. Further, in test [2], the pest or weed control at 50 ppm was 80 to 100%.

`N#Cc1cnc(Oc2ccc(C(F)(F)C(O)(Cn3cnnn3)c3ccc(F)cc3F)nc2)s1` (stereo not drawn) [Compound 107, 2-((6-(2-(2,4-difluorophenyl)-1,1-difluoro-2-hydroxy-3-(1H-tetrazol-1-yl)propyl)pyridin-3-yl)oxy)thiazole-5-carbonitrile]: the MIC in test [1] was ≤ 0.5 mg/L. Moreover, the pest or weed control at 50 ppm in test [2] was < 40%.

For the molecule `OC(Cn1cnnn1)(c1ccc(F)cc1F)C(F)(F)c1ccc(Oc2ncc(C(F)(F)F)cc2F)cn1` (stereo not drawn) [Compound 104, 2-(2,4-difluorophenyl)-1,1-difluoro-1-(5-((3-fluoro-5-(trifluoromethyl)pyridin-2-yl)oxy)pyridin-2-yl)-3-(1H-tetrazol-1-yl)propan-2-ol], the MIC in test [1] was ≤ 0.5 mg/L. Moreover, the pest or weed control at 50 ppm in test [2] was 80 to 100%.

Take `OC(Cn1cnnn1)(c1ccc(F)cc1F)C(F)(F)c1ccc(OCc2ccccc2)cn1` (stereo not drawn) [Compound 30, 1-(5-(Benzyloxy)pyridin-2-yl)-2-(2,4-difluorophenyl)-1,1-difluoro-3-(1H-tetrazol-1-yl)propan-2-ol]: the “Septoria Rating (MIC)” value in test [1] is on record as “A (≦0.5)”. Further, the “Puccinia Rating (% Disease Control @ 50 ppm)” value in test [2] is on record as “A (80-100)”.

For `OC(Cn1cnnn1)(c1ccc(F)cc1F)C(F)(F)c1ccc(OCc2ccc(Cl)cc2F)cn1` (stereo not drawn) [Compound 1, 1-(5-(4-Chloro-2-fluorobenzyloxy)pyridin-2-yl)-2-(2,4-difluorophenyl)-1,1-difluoro-3-(1H-tetrazol-1-yl)propan-2-ol], the MIC in test [1] was ≤ 0.5 mg/L. In test [2], the pest or weed control at 50 ppm was 80 to 100%.

As to `OC(Cn1cnnn1)(c1ccc(F)cc1F)C(F)(F)c1ccc(OCc2cc(F)cc(F)c2)cn1` (stereo not drawn) [Compound 35, 1-(5-((3,5-Difluorobenzyl)oxy)pyridin-2-yl)-2-(2,4-difluorophenyl)-1,1-difluoro-3-(1H-tetrazol-1-yl)propan-2-ol], the MIC in test [1] is ≤ 0.5 mg/L. For the same molecule, the pest or weed control at 50 ppm in test [2] is 80 to 100%.

Consider `OC(Cn1cnnn1)(c1ccc(F)cc1F)C(F)(F)c1ccc(Oc2ccc(C(F)(F)F)cn2)cn1` (stereo not drawn) [Compound 94, 2-(2,4-difluorophenyl)-1,1-difluoro-3-(1H-tetrazol-1-yl)-1-(5-((5-(trifluoromethyl)pyridin-2-yl)oxy)pyridin-2-yl)propan-2-ol], for which the MIC in test [1] is ≤ 0.5 mg/L. Also, the pest or weed control at 50 ppm in test [2] fell in the range of 80 to 100%.

Turning to `N#Cc1ccc(CSc2ccc(C(F)(F)C(O)(Cn3cnnn3)c3ccc(F)cc3F)nc2)c(F)c1` (stereo not drawn) [Compound 15, 4-(((6-(2-(2,4-Difluorophenyl)-1,1-difluoro-2-hydroxy-3-(1H-tetrazol-1-yl)propyl)pyridin-3-yl)thio)methyl)-3-fluorobenzonitrile], in test [1], the MIC is ≤ 0.5 mg/L. The pest or weed control at 50 ppm in test [2] fell in the range of 40 to 59%.

For the molecule `N#Cc1ccc(COc2ccc(C(F)(F)C(O)(Cn3cnnn3)c3ccc(F)cc3F)nc2)s1` (stereo not drawn) [Compound 73, 5-(((6-(2-(2,4-Difluorophenyl)-1,1-difluoro-2-hydroxy-3-(1H-tetrazol-1-yl)propyl)pyridin-3-yl)oxy)methyl)thiophene-2-carbonitrile], in test [1], the MIC is ≤ 0.5 mg/L. Moreover, in test [2], the pest or weed control at 50 ppm was 80 to 100%.

For the molecule `OC(Cn1cncn1)(c1ccc(F)cc1F)C(F)(F)c1ccc(OCc2cccc(F)c2F)cn1` (stereo not drawn) [Compound 45, 1-(5-((2,3-Difluorobenzyl)oxy)pyridin-2-yl)-2-(2,4-difluorophenyl)-1,1-difluoro-3-(1H-1,2,4-triazol-1-yl)propan-2-ol], the MIC in test [1] was ≤ 0.5 mg/L. Moreover, the pest or weed control at 50 ppm in test [2] fell in the range of 80 to 100%.

On to `OC(Cn1cnnn1)(c1ccc(F)cc1F)C(F)(F)c1ccc(Oc2ccc(OC(F)(F)F)cc2)cn1` (stereo not drawn) [Compound 76, 2-(2,4-Difluorophenyl)-1,1-difluoro-3-(1H-tetrazol-1-yl)-1-(5-(4-(trifluoromethoxy)phenoxy)pyridin-2-yl)propan-2-ol], for which the minimal inhibitory concentration (MIC) in test [1] was ≤ 0.5 mg/L. Besides, in test [2], the pest or weed control at 50 ppm was 80 to 100%.

As for `OC(Cn1cnnn1)(c1ccc(F)cc1F)C(F)(F)c1ccc(OCC(F)(F)c2ccccc2)cn1` (stereo not drawn) [Compound 119, 1-(5-(2,2-difluoro-2-phenylethoxy)pyridin-2-yl)-2-(2,4-difluorophenyl)-1,1-difluoro-3-(1H-tetrazol-1-yl)propan-2-ol], the MIC in test [1] was ≤ 0.5 mg/L. Further, the pest or weed control at 50 ppm in test [2] is 80 to 100%.

Take `CC(C)Oc1ccc(C(F)(F)C(O)(Cn2cnnn2)c2ccc(F)cc2F)nc1` (stereo not drawn) [Compound 42, 2-(2,4-Difluorophenyl)-1,1-difluoro-1-(5-isopropoxypyridin-2-yl)-3-(1H-tetrazol-1-yl)propan-2-ol]: the MIC in test [1] lay in the range of 0.5 to 1.5 mg/L (≈ 1.22 to 3.65 µM). Besides, in test [2], the pest or weed control at 50 ppm lay within 80 to 100%.

As for `COc1ccc(Oc2ccc(C(F)(F)C(O)(Cn3cnnn3)c3ccc(F)cc3F)nc2)cc1` (stereo not drawn) [Compound 87, 2-(2,4-Difluorophenyl)-1,1-difluoro-1-(5-(4-methoxyphenoxy)pyridin-2-yl)-3-(1H-tetrazol-1-yl)propan-2-ol], the MIC in test [1] is > 4 mg/L. Further, the pest or weed control at 50 ppm in test [2] is 80 to 100%.

As for `N#Cc1ccc(COc2ccc(C(F)(F)C(O)(Cn3cnnn3)c3ccc(F)cc3F)nc2)cc1F` (stereo not drawn) [Compound 10, 4-(((6-(2-(2,4-Difluorophenyl)-1,1-difluoro-2-hydroxy-3-(1H-tetrazol-1-yl)propyl)pyridin-3-yl)oxy)methyl)-2-fluorobenzonitrile], in test [1], the MIC is ≤ 0.5 mg/L. The pest or weed control at 50 ppm in test [2] is 80 to 100%.

In the case of `N#Cc1ccc(COc2ccc(C(F)(F)C(O)(Cn3ncnn3)c3ccc(F)cc3F)nc2)cc1` (stereo not drawn) [Compound 83, 4-(((6-(2-(2,4-Difluorophenyl)-1,1-difluoro-2-hydroxy-3-(2H-tetrazol-2-yl)propyl)pyridin-3-yl)oxy)methyl)benzonitrile], in test [1], the MIC fell in the range of 1.5 to 4 mg/L (≈ 3.1 to 8.26 µM). In addition, the pest or weed control at 50 ppm in test [2] was in the range of 40 to 59%.

Consider `OC(Cn1cnnn1)(c1ccc(F)cc1F)C(F)(F)c1ccc(Oc2ccc(C(F)(F)F)cc2)cn1` (stereo not drawn) [Compound 75, 2-(2,4-Difluorophenyl)-1,1-difluoro-3-(1H-tetrazol-1-yl)-1-(5-(4-(trifluoromethyl)phenoxy)pyridin-2-yl)propan-2-ol], for which, in test [1], the MIC was ≤ 0.5 mg/L. In addition, the pest or weed control at 50 ppm in test [2] was 80 to 100%.

With `OC(Cn1cnnn1)(c1ccc(F)cc1F)C(F)(F)c1ccc(Oc2ccc(F)c(F)c2)cn1` (stereo not drawn) [Compound 86, 1-(5-(3,4-Difluorophenoxy)pyridin-2-yl)-2-(2,4-difluorophenyl)-1,1-difluoro-3-(1H-tetrazol-1-yl)propan-2-ol], the MIC in test [1] is ≤ 0.5 mg/L. Further, the pest or weed control at 50 ppm in test [2] lay within 80 to 100%.
